Results from PMC2861369 (Current pharmaceutical biotechnology, 2009).

Molecular target: T1, EH (recombinant mouse sEH) (Mus musculus, UniProt P34914)
T1 sequence (P34914 1-554): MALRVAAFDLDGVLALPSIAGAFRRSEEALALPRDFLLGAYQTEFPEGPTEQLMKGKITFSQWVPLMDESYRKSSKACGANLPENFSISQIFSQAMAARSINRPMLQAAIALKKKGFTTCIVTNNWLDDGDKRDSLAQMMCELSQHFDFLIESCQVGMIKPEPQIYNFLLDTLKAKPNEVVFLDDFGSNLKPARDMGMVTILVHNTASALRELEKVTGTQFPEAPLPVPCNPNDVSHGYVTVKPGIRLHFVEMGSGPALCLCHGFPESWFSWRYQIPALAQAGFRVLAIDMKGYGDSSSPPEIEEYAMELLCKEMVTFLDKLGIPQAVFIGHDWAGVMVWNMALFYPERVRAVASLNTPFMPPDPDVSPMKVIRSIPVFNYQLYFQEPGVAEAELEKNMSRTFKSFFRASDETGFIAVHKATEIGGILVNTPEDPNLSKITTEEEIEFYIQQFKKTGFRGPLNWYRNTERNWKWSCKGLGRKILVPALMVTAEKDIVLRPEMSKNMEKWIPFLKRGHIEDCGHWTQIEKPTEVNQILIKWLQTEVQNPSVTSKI
Test: Effect of EH on the fluorescence of naphthyl derivatives
Type: binding
Conditions: ex 330 nm, EH 0–100 nM

## O=C(Nc1ccc(O)c2ccccc12)NC1CCCCC1 [XIIa]
  Effect of EH on fluorescence of the naphthyl derivative (in words): appearance of a new peak and a clear enhancement of fluorescence
